What was measured:
OCI-Ly10 cells = test: Proliferation-Inhibitory Test Against Diffuse Large-Cell B-Cell Lymphoma OCI-Ly10 Strain; type: cell-based; details: Homo sapiens, 96 hours, alamarBlue
Experimental: OCI-Ly10 cells were cultured in IMDM medium (Iscove's Modified Dulbecco's Medium, Manufactured by Thermo Fisher Scientific Inc., hereinafter “medium”) containing 20% Fetal bovine serum and 1% penicillin-streptomycin (Nacalai Tesque, Inc.) in a 5% CO2 incubator. OCI-Ly10 cells were seeded to 96-well plate (20000 cells/well), compounds diluted with medium were added with final concentrations of 0.9 nM to 30000 nM (Final DMSO concentration, 0.3%), incubated for 96 hours and alamorBlue reagent (Thermo Fisher Scientific Inc.) was added.

dephosphorylated BTK = dephosphorylated BTK (Homo sapiens (Human), UniProt Q06187); test: BTK Activity Inhibition Test (mobility shift assay); type: biochemical; details: 200 μM ATP, read-out: Inhibitory Activity on BTK
dephosphorylated BTK, sequence (Q06187 whole entry): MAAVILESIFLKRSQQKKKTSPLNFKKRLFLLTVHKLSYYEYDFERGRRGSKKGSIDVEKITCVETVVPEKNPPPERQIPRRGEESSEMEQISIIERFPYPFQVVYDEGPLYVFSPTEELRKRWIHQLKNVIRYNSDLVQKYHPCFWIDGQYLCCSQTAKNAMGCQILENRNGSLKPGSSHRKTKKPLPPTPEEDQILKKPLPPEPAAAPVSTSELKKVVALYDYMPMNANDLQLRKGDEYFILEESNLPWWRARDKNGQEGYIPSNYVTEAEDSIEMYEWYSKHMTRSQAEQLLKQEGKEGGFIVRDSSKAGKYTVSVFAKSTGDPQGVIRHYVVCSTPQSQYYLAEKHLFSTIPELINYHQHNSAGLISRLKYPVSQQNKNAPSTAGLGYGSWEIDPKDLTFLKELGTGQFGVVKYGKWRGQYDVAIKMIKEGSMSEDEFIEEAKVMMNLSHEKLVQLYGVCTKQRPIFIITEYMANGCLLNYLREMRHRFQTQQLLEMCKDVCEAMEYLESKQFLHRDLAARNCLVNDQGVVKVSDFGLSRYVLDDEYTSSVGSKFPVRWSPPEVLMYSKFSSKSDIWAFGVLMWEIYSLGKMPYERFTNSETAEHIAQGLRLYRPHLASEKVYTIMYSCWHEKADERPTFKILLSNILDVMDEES
Experimental: Dephosphorylated BTK was obtained by adding λ protein phosphatase (manufactured by New England BioLabs Inc., Code No. P0753S) and MnCl2 at 10 U/μg and 2 mM, respectively, to biotinylated BTK protein BTN-BTK (Manufactured by Carna Biosciences, Inc.) enzyme solution, reacting the mixture at 4° C. overnight, and removing of λ protein phosphatase by anti […]-tag antibody agarose gel chromatography, followed by buffer exchange using a 10DG Desalting Column.
The kinase activity was measured using QuickScout Screening Assist (trade mark) MSA (commercially available kit manufactured by Carna Biosciences, Inc.) by mobility shift assay (MSA) method. The substrate of the kinase reaction was an FITC-labeled SRCtide peptide included in the kit. An assay buffer [20 mM HEPES, 0.01% Triton X-100 (Trade mark), 2 mM dithiothreitol, pH 7.5] was used and adjusted at 4 μM substrate, 20 mM MgCl2 and 200 μm ATP to obtain a substrate mixture solution. The enzyme solution was also prepared by diluting the dephosphorylated BTK to 0.46 nM using the assay buffer. The 10 mM solution of the test compound in DMSO was further diluted with DMSO to 10 levels of the concentration (0.00003 mM, 0.0001 mM, 0.0003 mM, 0.001 mM, 0.003 mM, 0.01 mM, 0.03 mM, 0.1 mM, 0.3 mM, 1 mM), each of which was subjected to a 25-fold dilution with the assay buffer to obtain the drug solutions (4% DMSO solutions). 5 μL of the drug solution or a control solution (4% DMSO-assay buffer), 5 μL of the substrate mixture solution, and 10 μL of the enzyme solution were mixed in the wells of a polypropylene 384-well plate and allowed to react at room temperature for 2 hours, and then quenched by adding 60 μL of the termination buffer included in the kit. Subsequently, the quantities of the substrates (S) and the phosphorylated substrate (P) in the reaction solution were measured using LabChip EZ Reader II system (manufactured by Caliper Life Sciences) according to the protocol of the assay kit.
(§1) The heights of the peaks of the isolated substrate and the phosphorylated substrate were represented as S and P, respectively, and a blank which contained the assay buffer instead of the enzyme solution was also measured.
(§2) The inhibition rate (%) of the test compound was calculated according to the following equation; Inhibition rate (%)=(1−(C−A)/(B−A))×100 • wherein, A, B and C represent P/(P+S) of the blank well, P/(P+S) of the control well and P/(P+S) of the compound-containing well, respectively.
(§3) The IC50 value was calculated via a regression analysis of the inhibition rate (%) and the test compound concentration (logarithmic value).

[1] = biological target: C481S mutant BTK [BTK(C481S)] (Homo sapiens (Human), UniProt Q06187, C481S); test: C481S Mutant BTK Inhibitory Activity Test (mobility shift assay); type: biochemical; details: for IC50: C481S mutant BTK, 100 μM ATP; for C481S mutation-resistance: IC50[BTK(C481S)]/IC50[BTK(WT)]
C481S mutant BTK [BTK(C481S)], sequence (Q06187 whole entry C481S): as the sequence (Q06187 whole entry) above, with C481S counted along it
Experimental: (§4) The kinase activity was measured using QuickScout Screening Assist (trademark) MSA (commercially available kit manufactured by Carna Biosciences, Inc.) by mobility shift assay (MSA) method. The substrate of the kinase reaction was an FITC-labeled SRCtide peptide included in the kit. […] The 10 mM solution of the test compound in DMSO was further diluted with DMSO to 10 levels of the concentration (0.00003 mM, 0.0001 mM, 0.0003 mM, 0.001 mM, 0.003 mM, 0.01 mM, 0.03 mM, 0.1 mM, 0.3 mM, 1 mM), each of which was subjected to a 25-fold dilution with the assay buffer to obtain the drug solutions (4% DMSO solutions).
(§5) 5 μL of the drug solution or a control solution (4% DMSO-assay buffer), 5 μL of the substrate mixture solution, and 10 μL of the enzyme solution were mixed in the wells of a polypropylene 384-well plate and allowed to react at room temperature for 1 hour, and then quenched by adding 60 μL of the termination buffer included in the kit. Subsequently, the quantities of the substrates (S) and the phosphorylated substrate (P) in the reaction solution were measured using LabChip EZ Reader II system (manufactured by Caliper Life Sciences) according to the protocol of the assay kit.
as §1, §2, §3

wild type BTK [BTK(WT)] = wild type BTK [BTK(WT)] (Homo sapiens (Human), UniProt Q06187); test: C481S Mutant BTK Inhibitory Activity Test, wild type BTK (mobility shift assay); type: biochemical; details: 120 μM ATP
wild type BTK [BTK(WT)], sequence (Q06187 whole entry): as the sequence (Q06187 whole entry) above
Experimental: as §4, §5, §1, §2, §3

IC50 (OCI-Ly10 cells) | IC50 (dephosphorylated BTK) | IC50 [1] | C481S mutation-resistance [1] | IC50 (wild type BTK [BTK(WT)]) | Compound
332 nM | < 10 nM | – | – | – | Nc1nc(-c2cccc(-n3ccc4cc(C5CC5)cc(F)c4c3=O)c2CO)c2cc(-c3cccc(F)c3)[nH]c2n1 [Example 29, 2-{3-[2-amino-6-(3-fluorophenyl)-7H-pyrrolo[2,3-d]pyrimidin-4-yl]-2-(hydroxymethyl)phenyl}-6-cyclopropyl-8-fluoroisoquinolin-1(2H)-one]
– | 10 to 100 nM | – | – | – | C=CC(=O)NCc1cc2c(-c3cccc(-n4ccc5cc(C6CC6)cc(F)c5c4=O)c3CO)nc(N)nc2[nH]1 [Example 30, N-({2-amino-4-[3-(6-cyclopropyl-8-fluoro-1-oxoisoquinolin-2(1H)-yl)-2-(hydroxymethyl)phenyl]-7H-pyrrolo[2,3-d]pyrimidin-6-yl}methyl)acrylamide]
45 nM | < 10 nM | – | – | – | Cn1cc(-c2nc3c(-c4cccc(-n5ccc6cc(C7CC7)cc(F)c6c5=O)c4CO)nc(N)nc3[nH]2)cn1 [Example 31, 2-{3-[2-amino-8-(1-methyl-1H-pyrazol-4-yl)-9H-purin-6-yl]-2-(hydroxymethyl)phenyl}-6-cyclopropyl-8-fluoroisoquinolin-1(2H)-one]
197 nM | < 10 nM | – | – | – | Nc1nc(-c2cccc(-n3ccc4cc(C5CC5)cc(F)c4c3=O)c2CO)c2cc(-c3ccccc3F)[nH]c2n1 [Example 33, 2-{3-[2-amino-6-(2-fluorophenyl)-7H-pyrrolo[2,3-d]pyrimidin-4-yl]-2-(hydroxymethyl)phenyl}-6-cyclopropyl-8-fluoroisoquinolin-1(2H)-one]
102 nM | < 10 nM | – | – | – | Nc1nc(-c2cccc(-n3ccc4cc(C5CC5)cc(F)c4c3=O)c2CO)c2cc(-c3ccc(F)cc3)[nH]c2n1 [Example 34, 2-{3-[2-amino-6-(4-fluorophenyl)-7H-pyrrolo[2,3-d]pyrimidin-4-yl]-2-(hydroxymethyl)phenyl}-6-cyclopropyl-8-fluoroisoquinolin-1(2H)-one]
428 nM | < 10 nM | – | – | – | Nc1nc(-c2cccc(-n3ccc4cc(C5CC5)cc(F)c4c3=O)c2CO)c2cc(-c3ccc(F)cc3F)[nH]c2n1 [Example 35, 2-{3-[2-amino-6-(2,4-difluorophenyl)-7H-pyrrolo[2,3-d]pyrimidin-4-yl]-2-(hydroxymethyl)phenyl}-6-cyclopropyl-8-fluoroisoquinolin-1(2H)-one]
450 nM | < 10 nM | – | – | – | Nc1nc(-c2cccc(-n3ccc4cc(C5CC5)cc(F)c4c3=O)c2CO)c2cc(-c3ccc(F)c(F)c3)[nH]c2n1 [Example 36, 2-{3-[2-amino-6-(3,4-difluorophenyl)-7H-pyrrolo[2,3-d]pyrimidin-4-yl]-2-(hydroxymethyl)phenyl}-6-cyclopropyl-8-fluoroisoquinolin-1(2H)-one]
499 nM | < 10 nM | – | – | – | Nc1nc(-c2cccc(-n3ccc4cc(C5CC5)cc(F)c4c3=O)c2CO)c2cc(-c3ccc(C(F)(F)F)cc3)[nH]c2n1 [Example 37, 2-(3-{2-amino-6-[4-(trifluoromethyl)phenyl]-7H-pyrrolo[2,3-d]pyrimidin-4-yl}-2-(hydroxymethyl)phenyl)-6-cyclopropyl-8-fluoroisoquinolin-1(2H)-one]
366 nM | 10 to 100 nM | – | – | – | Nc1nc(-c2cccc(-n3ccc4cc(C5CC5)cc(F)c4c3=O)c2CO)c2cc(-c3ccc(OC(F)(F)F)cc3)[nH]c2n1 [Example 38, 2-(3-{2-amino-6-[4-(trifluoromethoxy)phenyl]-7H-pyrrolo[2,3-d]pyrimidin-4-yl}-2-(hydroxymethyl)phenyl)-6-cyclopropyl-8-fluoroisoquinolin-1(2H)-one]
1050 nM | 10 to 100 nM | – | – | – | NCc1cc2c(-c3cccc(-n4ccc5cc(C6CC6)cc(F)c5c4=O)c3CO)nc(N)nc2[nH]1 [Example 39, 2-{3-[2-amino-6-(aminomethyl)-7H-pyrrolo[2,3-d]pyrimidin-4-yl]-2-(hydroxymethyl)phenyl}-6-cyclopropyl-8-fluoroisoquinolin-1(2H)-one]
1330 nM | < 10 nM | – | – | – | Nc1nc(-c2cccc(-n3ccc4cc(C5CC5)cc(F)c4c3=O)c2CO)c2cc(-c3cccc(C(F)(F)F)c3)[nH]c2n1 [Example 40, 2-(3-{2-amino-6-[3-(trifluoromethyl)phenyl]-7H-pyrrolo[2,3-d]pyrimidin-4-yl}-2-(hydroxymethyl)phenyl)-6-cyclopropyl-8-fluoroisoquinolin-1(2H)-one]
52 nM | – | 1.6 nM | 2.1 | 0.77 nM | CNc1cc(-c2cc3c(-c4cccc(-n5ccc6cc(C7CC7)cc(F)c6c5=O)c4CO)nc(N)nc3[nH]2)ccn1 [Example 50, 2-(3-{2-amino-6-[2-(methylamino)pyridin-4-yl]-7H-pyrrolo[2,3-d]pyrimidin-4-yl}-2-(hydroxymethyl)phenyl)-6-cyclopropyl-8-fluoroisoquinolin-1(2H)-one]
10 nM | – | 0.78 nM | 1.8 | 0.43 nM | CN(C)Cc1ccc(-c2cc3c(-c4cccc(-n5ccc6cc(C7CC7)cc(F)c6c5=O)c4CO)nc(N)nc3[nH]2)cc1 [Example 51, 2-[3-(2-amino-6-{4-[(dimethylamino)methyl]phenyl}-7H-pyrrolo[2,3-d]pyrimidin-4-yl)-2-(hydroxymethyl)phenyl]-6-cyclopropyl-8-fluoroisoquinolin-1(2H)-one]
– | – | 0.58 nM | 1.5 | 0.39 nM | CN1CCN(C(=O)N2CC=C(c3cc4c(-c5cccc(-n6ccc7cc(C8CC8)cc(F)c7c6=O)c5CO)nc(N)nc4[nH]3)CC2)CC1 [Example 71, 2-(3-{2-amino-6-[1-(4-methylpiperazine-1-carbonyl)-1,2,3,6-tetrahydropyridin-4-yl]-7H-pyrrolo[2,3-d]pyrimidin-4-yl}-2-(hydroxymethyl)phenyl)-6-cyclopropyl-8-fluoroisoquinolin-1(2H)-one]
– | – | 0.95 nM | 1.8 | 0.52 nM | CN(C)C(=O)N1CC=C(c2cc3c(-c4cccc(-n5ccc6cc(C7CC7)cc(F)c6c5=O)c4CO)nc(N)nc3[nH]2)CC1 [Example 87, 4-{2-amino-4-[3-(6-cyclopropyl-8-fluoro-1-oxoisoquinolin-2(1H)-yl)-2-(hydroxymethyl)phenyl]-7H-pyrrolo[2,3-d]pyrimidin-6-yl}-N,N-dimethyl-5,6-dihydropyridine-1(2H)-carboxamide]
– | – | 0.99 nM | 2.4 | 0.41 nM | Nc1nc(-c2cccc(-n3ccc4cc(C5CC5)cc(F)c4c3=O)c2CO)c2cc(C3=CCNCC3)[nH]c2n1 [Example 93, 2-{3-[2-amino-6-(1,2,3,6-tetrahydropyridin-4-yl)-7H-pyrrolo[2,3-d]pyrimidin-4-yl]-2-(hydroxymethyl)phenyl}-6-cyclopropyl-8-fluoroisoquinolin-1(2H)-one]

— US10793575B2, “Oxoisoquinoline derivatives” (CARNA BIOSCIENCES, INC., priority 2016, dated 2020)
